According to patent US20240300934A1, “COMPOUNDS FOR MODULATING MYCOBACTERIUM TUBERCULOSIS RESPONSE” (priority 2021, published 2024):

What was measured:
[1] = test system: rv2390c′::GFP reporter Mtb strain; type: cell-based, Mycobacterium tuberculosis
[2] = target: T1, human CYP 450 1A2 (Homo sapiens, UniProt P05177); assay: Human cytochrome P450 inhibition, 1A2; type: in vitro ADME; conditions: 10 μM
T1 sequence (P05177 1-516): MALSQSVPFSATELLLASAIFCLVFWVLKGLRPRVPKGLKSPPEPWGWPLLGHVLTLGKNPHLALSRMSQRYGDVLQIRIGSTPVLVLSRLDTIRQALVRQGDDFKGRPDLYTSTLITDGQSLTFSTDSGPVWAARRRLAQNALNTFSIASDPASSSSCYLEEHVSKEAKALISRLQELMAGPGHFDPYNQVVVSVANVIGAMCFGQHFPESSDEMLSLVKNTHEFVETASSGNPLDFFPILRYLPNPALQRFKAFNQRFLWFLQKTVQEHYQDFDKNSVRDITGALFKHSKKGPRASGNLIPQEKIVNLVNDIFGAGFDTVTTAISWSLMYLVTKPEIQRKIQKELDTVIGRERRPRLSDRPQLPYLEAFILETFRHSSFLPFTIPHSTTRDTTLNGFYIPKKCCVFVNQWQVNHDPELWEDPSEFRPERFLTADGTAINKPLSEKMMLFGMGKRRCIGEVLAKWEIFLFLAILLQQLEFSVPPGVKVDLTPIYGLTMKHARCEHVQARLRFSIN

[3] = target: human CYP 450 2C19 (Homo sapiens, UniProt P33261); assay: Human cytochrome P450 inhibition, 2C19; type: in vitro ADME; conditions: 10 μM
human CYP 450 2C19, sequence (P33261 whole entry): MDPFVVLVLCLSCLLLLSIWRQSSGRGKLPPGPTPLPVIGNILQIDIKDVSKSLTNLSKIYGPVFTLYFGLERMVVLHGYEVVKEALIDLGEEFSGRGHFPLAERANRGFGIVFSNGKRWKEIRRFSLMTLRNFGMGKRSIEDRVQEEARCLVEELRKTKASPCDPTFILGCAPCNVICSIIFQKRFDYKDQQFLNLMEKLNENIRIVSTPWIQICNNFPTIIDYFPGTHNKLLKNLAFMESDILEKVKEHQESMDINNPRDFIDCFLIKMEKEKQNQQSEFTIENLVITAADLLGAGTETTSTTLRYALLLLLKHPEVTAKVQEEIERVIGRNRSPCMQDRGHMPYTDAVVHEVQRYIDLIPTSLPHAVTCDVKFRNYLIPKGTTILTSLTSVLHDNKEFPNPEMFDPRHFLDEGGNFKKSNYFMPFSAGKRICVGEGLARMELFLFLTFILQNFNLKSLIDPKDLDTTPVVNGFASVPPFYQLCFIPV

[4] = test system: Mtb; assay: Mtb growth assay in cholesterol media (OD600); type: cell-based, Mycobacterium tuberculosis
[5] = test system: Mtb; conditions: PubChem AID 1259343, SID 340463129; cited from earlier work
[6] = target: human CYP 450 2D6 (Homo sapiens, UniProt P10635); assay: Human cytochrome P450 inhibition, 2D6; type: in vitro ADME; conditions: 10 μM
human CYP 450 2D6, sequence (P10635 whole entry): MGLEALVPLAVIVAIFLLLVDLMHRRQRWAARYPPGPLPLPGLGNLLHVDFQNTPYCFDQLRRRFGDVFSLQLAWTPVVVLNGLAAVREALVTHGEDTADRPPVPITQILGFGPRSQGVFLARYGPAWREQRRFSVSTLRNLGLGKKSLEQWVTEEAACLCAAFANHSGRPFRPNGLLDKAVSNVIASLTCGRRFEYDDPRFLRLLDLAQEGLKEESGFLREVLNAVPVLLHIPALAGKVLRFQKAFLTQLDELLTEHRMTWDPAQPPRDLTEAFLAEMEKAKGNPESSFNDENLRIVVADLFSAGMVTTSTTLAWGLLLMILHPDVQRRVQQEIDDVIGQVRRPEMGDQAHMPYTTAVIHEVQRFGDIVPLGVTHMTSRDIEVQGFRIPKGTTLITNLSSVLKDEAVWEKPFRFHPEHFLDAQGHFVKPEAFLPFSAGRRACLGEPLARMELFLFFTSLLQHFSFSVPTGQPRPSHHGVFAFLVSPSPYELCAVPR

[7] = test system: Vero cells; assay: Vero cell toxicity assay; type: cell-based, African green monkey; conditions: 72 h
Procedure: Vero cells (African green monkey kidney epithelial cells; ATCC CCL-81) were maintained in DMEM+10% FBS. For the cell toxicity assay, Vero cells were plated at 1×10^5 cells/well in a 96-well plate and incubated for 2-3 h to allow cells to settle. The test compound was dissolved in DMSO at a final concentration of 12 mg/ml. The test compound solution was then added to plated cells, resulting in final test concentrations of 50 to 0.78 μg/ml, with each concentration tested at least in duplicate. To evaluate […] cell viability, 20 μl of a 1:20 MTS:PMS reagent (Promega CellTiter 96 AQueous non-radioactive cell proliferation assay kit) was added to each well after 72 h of incubation at 37° C. and the plate then incubated for an additional 3 h. Absorbance at 490 nm was read on a Molecular Devices SpectraMax M5 microplate reader. The CC50 (the minimal amount of compound that inhibited Vero cell growth by 50%) was extrapolated by plotting absorbance at 490 nm versus the […].

[8] = test system: J774 cells; assay: Intracellular drug accumulation assay in J774 cells; conditions: 24 h exposure; uninfected J774 cells
[9] = test system: human CYP 450 3A4/5; assay: Human cytochrome P450 inhibition, 3A4/5; type: in vitro ADME; conditions: 10 μM
[10] = Human plasma protein binding; type: in vitro ADME
Procedure: Assays examining mouse and human liver microsomal stability, kinetic aqueous solubility, mouse and human plasma protein binding and stability, and human cytochrome P450 inhibition characteristics of the compounds were run by BioDuro, Incorporated, using standard protocols as previously described (Wang et al, 2020). hERG inhibition assays were also performed by BioDuro, Incorporated.

[11] = test system: murine bone marrow derived macrophages phagosome; assay: Phagosomal maturation assays with sensor beads; type: cell-based, mouse; conditions: 10 μM
Procedure: Carboxyfluorescein (pH readout), DQ-BSA/Alexa Fluor 594 (AF594) (proteolysis readout), and 10,10′-Bis[3-carboxylpropyl]-9,9′-biacridinium (BAC)/AF594 (Cl^− readout) beads were generated as previously described (Podinovskaia et al, 2013; Tan et al, 2013; Tan et al, 2017; Yates et al, 2008). Bone marrow-derived macrophages were isolated from C57BL/6J mice (Jackson Laboratories) and maintained as described above. 2×10^5 macrophages/well were seeded into 96-well clear bottom black plates, and utilized in assays one-two days post-seeding. […] Assay buffer consisted of PBS, pH 7.2, supplemented with 5% FBS, 5 mM dextrose, 1 mM CaCl2, 2.7 mM KCl, and 0.5 mM MgCl2 in the case of assays with the carboxyfluorescein or DQ-BSA/AF594 beads (Buter et al, 2019; Dutta et al, 2020). For assays with the BAC/AF594 beads, assay buffer consisted of PBS, pH 7.2, supplemented with 5% FBS, 5 mM dextrose, 1 mM calcium acetate, 1.35 mM K2SO4, and 0.5 mM MgSO4 (Tan et al, 2013). Sensor beads at ˜2-5 beads/macrophage in appropriate assay buffer were finally added, with data acquisition on a Biotek Synergy H1 microplate reader with bottom read signal detection started within 2-3 minutes of bead addition. Excitation/emission wavelengths were 450 nm/520 nm and 490 nm/520 nm for carboxyfluorescein, 490 nm/520 nm for DQ-BSA, 365 nm/505 nm for BAC, and 590 nm/617 nm for AF594. Each experiment was run with a total of 3-5 replicate wells/condition, with temperature maintained at 37° C. throughout the assay. Wells were read every 2 minutes for 2 hours for the carboxyfluorescein bead assays, every 2 minutes for 4 hours for the DQ-BSA/AF594 bead assays, and every 1 minute for 2 hours for the BAC/AF594 bead assays. Analyses of the results were performed as previously described (Buter et al, 2019; Dutta et al, 2020; Podinovskaia et al, 2013; Tan et al, 2013).

In the case of CCSc1ncc(CN2CCN(c3nc4ccccc4o3)CC2)cn1 [Compound C6, 2-(4-((2-(ethylthio)pyrimidin-5-yl)methyl)piperazin-1-yl)benzo[d]oxazole], the “rv2390c′::GFP reporter signal upon Mtb exposure to high [Cl−] (in words)” value ([1]; 10 μM, 250 mM NaCl) is reported as “increased rv2390c′::GFP reporter signal”, the “rv2390c′::GFP Cl− response phenotype” value ([1]; compared to C6) is reported as “Y” and the “rv2390c′::GFP response phenotype” value ([1]; screen hits, high chloride (250 mM NaCl, pH 6.4)) is reported as “Increases induction in high”. For the same molecule, the “% inhibition of CYP 1A2” value [2] was < 1%, the “% inhibition of CYP 2C19” value [3] was 30.3% and the “effect of even chain fatty acids on growth inhibition in cholesterol media” value ([4]; 10 μM, 4 mM acetate or 200 μM stearate) was “rescue inhibition”. The “Mtb growth in cholesterol media (in words)” value ([4]; 10 μM, OD600) was “inhibited Mtb growth in cholesterol media”, the “effect of odd chain fatty acids on growth inhibition in cholesterol media” value ([4]; 10 μM, additional odd chain carbon source) was “do not rescue inhibition” and the “effect of vitamin B12 on growth inhibition in cholesterol media” value ([4]; 10 μM, vitamin B12 added) was “does not rescue inhibition”. For the same molecule, the “Growth inhibition in cholesterol media phenotype” value ([4]; compared to C6) was “Y”, the “growth inhibition call in previous cholesterol media screen” value [5] was “positive for growth inhibition” and the “% inhibition of CYP 2D6” value [6] was 10.5%. For the same molecule, the “CC50 (minimum compound concentration to inhibit cell growth by 50%)” value [7] was > 50 µg/mL, the “intracellular accumulation in J774 cells” value [8] was “dose-dependent accumulation” and the “% inhibition of CYP 3A4/5” value [9] was < 1%. For the same molecule, the “protein binding to human plasma” value [10] was 99.2%, the “increase in [Cl−] during macrophage phagosomal maturation” value ([11]; BAC/AF594 beads) was “no significant effect” and the “macrophage phagosomal proteolytic activity” value ([11]; DQ-BSA/AF594 beads) was “did not affect macrophage phagosomal proteolytic activity”. The macrophage phagosomal acidification ([11]; carboxyfluorescein beads) was “did not alter macrophage phagosomal acidification”.
